System: SK-OV3 cells
Assay: preclinical efficacy study on the human ovarian tumor model in mice (tumor volume)
Format: in vivo
Settings: via tail vein once every three days, 4 doses, measured every third day through the 22nd day
Procedure: A preclinical efficacy study was conducted on the human ovarian tumor model in mice. The tumor cells used were SK-OV3 cells purchased from ATCC. The mice were 4-6 week old Athymic (nu+/nu+) female mice. The IRL-1620 was intravenously-infused slowly (over 30 seconds).
A solid tumor was induced in each animal using 3 million viable SK-OV3 cells suspended in 200 µl of PBS per animal. After 10 days, when established tumors of 100 mm^3 in diameter were detectable, the mice randomly were divided into six groups of 6 animals per group with each group receiving different treatments. The treatment regimens were administered via the tail vein every third day for a total of 4 doses. […]
The effect of these treatments on the tumor size was measured using a digital caliper for a total of 12 days after drug administration. The mice were monitored and weighed on every third day. […] Progression, stasis, partial regression or complete regression of tumor growth were measured by tumor load measurements with calipers and was calculated using the following formula: (3.14/6) x larger diameter x smaller diameter.

N.N.[Cl][Pt][Cl] [saline/cisplatin, cisplatin]
tumor volume (Figure 1, cisplatin 2.5 mg/kg with saline or IRL-1620 3 nmol/kg): significant reduction in tumor volume

O=P1(N(CCCl)CCCl)NCCCO1 (centres unmarked) [saline/cyclophosphamide, cyclophosphamide]
tumor volume (Figure 3, cyclophosphamide 75 mg/kg with saline or IRL-1620 3 nmol/kg): significant reduction in tumor volume

Reference: patent EP2144607B1, “COMPOSITIONS FOR CONTRIBUTING TO THE TREATMENT OF CANCERS” (Spectrum Pharmaceuticals, Inc., priority 2007, dated 2008)
